Reference: ChEMBL document CHEMBL3885861, “Open TG-GATES”

Species: Rattus norvegicus
Experiment: Open TG-GATES - Regimen: Single
Format: toxicity, organism-based, Sprague-Dawley
Parameters: regimen Single, gender Male, age 6 weeks
Settings: in vivo, po, 100 mg/kg, route gavage, dose level Low; for APTT / Bas / Eos / Fbg / Hb / Ht / Lym / MCH / MCHC / MCV / Mono / Neu / PT / Plat / RBC / Ret / WBC: tissue Blood; for KIDNEY_L / KIDNEY_R / KIDNEY_TOTAL: tissue Kidney; for LIVER: tissue Liver; for A/G / ALP / ALT / AST / BUN / CRE / Ca / Cl / DBIL / GLC / IP / K / LDH / Na / PL / RALB / TBIL / TC / TG / TP / gamma-GTP: tissue Plasma

Compound CNC(=C[N+](=O)[O-])NCCSCc1ccc(CN(C)C)o1 [RANITIDINE] has a TERMINAL_BW (3 h) of 216.8 g, an APTT (3 h) of 19.1 s and a Bas (3 h) of 0%. The Eos (3 h) was 1%, the Fbg (3 h) was 225.4 mg/dL and the Hb (3 h) was 13.7 g/dL. The Ht (3 h) was 39.7%, the Lym (3 h) was 76.8% and the MCH (3 h) was 22.3 pg. The MCHC (3 h) was 34.5%, the MCV (3 h) was 64.5 fL and the Mono (3 h) was 2.8%. The Neu (3 h) was 15.2%, the PT (3 h) was 12.1 s and the Plat (3 h) was 118 x10_4/uL. It also gave an RBC (3 h) of 616 x10_4/ul, a Ret (3 h) of 7.4% and a WBC (3 h) of 87.6 x10_2/uL. It also gave a KIDNEY_L (3 h) of 1 g, a KIDNEY_R (3 h) of 1 g and a KIDNEY_TOTAL (3 h) of 2 g. It also gave an LIVER (3 h) of 10.3 g, an A/G (3 h) of 1.6 and an ALP (3 h) of 1082.6 IU/L. The ALT (3 h) was 38.2 IU/L, the AST (3 h) was 66.6 IU/L and the BUN (3 h) was 11.4 mg/dL. For the same compound, the CRE (3 h) was 0.4 mg/dL, the Ca (3 h) was 10.7 mg/dL and the Cl (3 h) was 103.8 meq/L. The DBIL (3 h) was 0.078 mg/dL, the GLC (3 h) was 190.6 mg/dL and the IP (3 h) was 8.7 mg/dL. It also gave a K (3 h) of 3.7 meq/L, an LDH (3 h) of 153 IU/L and a Na (3 h) of 141 meq/L. The PL (3 h) was 137.8 mg/dL, the RALB (3 h) was 3.4 g/dL and the TBIL (3 h) was 0.1 mg/dL. It also gave a TC (3 h) of 73.2 mg/dL, a TG (3 h) of 57.4 mg/dL and a TP (3 h) of 5.6 g/dL. The gamma-GTP (3 h) was 1.2 IU/L, the TERMINAL_BW (6 h) was 216.3 g and the APTT (6 h) was 17.7 s. The Bas (6 h) was 0%, the Eos (6 h) was 0.6% and the Fbg (6 h) was 229.6 mg/dL. For the same compound, the Hb (6 h) was 12.9 g/dL, the Ht (6 h) was 37.1% and the Lym (6 h) was 73.2%. For the same compound, the MCH (6 h) was 22 pg, the MCHC (6 h) was 34.8% and the MCV (6 h) was 63.2 fL. The Mono (6 h) was 2.2%, the Neu (6 h) was 19.6% and the PT (6 h) was 12.3 s. It also gave a Plat (6 h) of 118.8 x10_4/uL, an RBC (6 h) of 588 x10_4/ul and a Ret (6 h) of 7.3%. For the same compound, the WBC (6 h) was 96.3 x10_2/uL, the KIDNEY_L (6 h) was 1 g and the KIDNEY_R (6 h) was 1 g. For the same compound, the KIDNEY_TOTAL (6 h) was 2 g, the LIVER (6 h) was 9.3 g and the A/G (6 h) was 1.7. The ALP (6 h) was 929.4 IU/L, the ALT (6 h) was 34 IU/L and the AST (6 h) was 66.4 IU/L. The BUN (6 h) was 9.6 mg/dL, the CRE (6 h) was 0.4 mg/dL and the Ca (6 h) was 10.5 mg/dL. The Cl (6 h) was 103.4 meq/L, the DBIL (6 h) was 0.074 mg/dL and the GLC (6 h) was 198 mg/dL. For the same compound, the IP (6 h) was 8.6 mg/dL, the K (6 h) was 3.8 meq/L and the LDH (6 h) was 168.8 IU/L. The Na (6 h) was 140.4 meq/L, the PL (6 h) was 134.2 mg/dL and the RALB (6 h) was 3.4 g/dL. For the same compound, the TBIL (6 h) was 0.1 mg/dL, the TC (6 h) was 73 mg/dL and the TG (6 h) was 52.8 mg/dL. The TP (6 h) was 5.4 g/dL, the gamma-GTP (6 h) was 1.4 IU/L and the TERMINAL_BW (9 h) was 213.4 g. The APTT (9 h) was 19.1 s, the Bas (9 h) was 0% and the Eos (9 h) was 1%. The Fbg (9 h) was 217.2 mg/dL, the Hb (9 h) was 13.2 g/dL and the Ht (9 h) was 37.7%. It also gave a Lym (9 h) of 72%, an MCH (9 h) of 22.1 pg and an MCHC (9 h) of 34.9%. The MCV (9 h) was 63.3 fL, the Mono (9 h) was 2.6% and the Neu (9 h) was 21.8%. The PT (9 h) was 12.6 s, the Plat (9 h) was 116.5 x10_4/uL and the RBC (9 h) was 596.2 x10_4/ul. The Ret (9 h) was 7.2%, the WBC (9 h) was 81.2 x10_2/uL and the KIDNEY_L (9 h) was 1 g. The KIDNEY_R (9 h) was 1 g, the KIDNEY_TOTAL (9 h) was 1.9 g and the LIVER (9 h) was 8.4 g. It also gave an A/G (9 h) of 1.6, an ALP (9 h) of 835.8 IU/L and an ALT (9 h) of 32.2 IU/L. The AST (9 h) was 68 IU/L, the BUN (9 h) was 10 mg/dL and the CRE (9 h) was 0.3 mg/dL. For the same compound, the Ca (9 h) was 10.3 mg/dL, the Cl (9 h) was 103.4 meq/L and the DBIL (9 h) was 0.062 mg/dL. For the same compound, the GLC (9 h) was 194.2 mg/dL, the IP (9 h) was 8.4 mg/dL and the K (9 h) was 3.6 meq/L. It also gave an LDH (9 h) of 144.4 IU/L, a Na (9 h) of 140.4 meq/L and a PL (9 h) of 132.6 mg/dL. For the same compound, the RALB (9 h) was 3.3 g/dL, the TBIL (9 h) was 0.1 mg/dL and the TC (9 h) was 78.6 mg/dL. The TG (9 h) was 22.2 mg/dL, the TP (9 h) was 5.3 g/dL and the gamma-GTP (9 h) was 1.4 IU/L. The TERMINAL_BW (24 h) was 226.3 g, the APTT (24 h) was 19.4 s and the Bas (24 h) was 0%. It also gave an Eos (24 h) of 1%, a Fbg (24 h) of 227 mg/dL and a Hb (24 h) of 13.9 g/dL. For the same compound, the Ht (24 h) was 39.7%, the Lym (24 h) was 79.2% and the MCH (24 h) was 22.7 pg. It also gave an MCHC (24 h) of 35.2%, an MCV (24 h) of 64.4 fL and a Mono (24 h) of 2.4%. It also gave a Neu (24 h) of 15.2%, a PT (24 h) of 12 s and a Plat (24 h) of 116.2 x10_4/uL. It also gave an RBC (24 h) of 617.2 x10_4/ul, a Ret (24 h) of 6.5% and a WBC (24 h) of 100.7 x10_2/uL. For the same compound, the KIDNEY_L (24 h) was 1 g, the KIDNEY_R (24 h) was 1 g and the KIDNEY_TOTAL (24 h) was 2 g. For the same compound, the LIVER (24 h) was 10.7 g, the A/G (24 h) was 1.5 and the ALP (24 h) was 931.8 IU/L. The ALT (24 h) was 33.8 IU/L, the AST (24 h) was 65.6 IU/L and the BUN (24 h) was 14.4 mg/dL. For the same compound, the CRE (24 h) was 0.4 mg/dL, the Ca (24 h) was 10.8 mg/dL and the Cl (24 h) was 102.2 meq/L. The DBIL (24 h) was 0.086 mg/dL, the GLC (24 h) was 196.6 mg/dL and the IP (24 h) was 7.6 mg/dL. For the same compound, the K (24 h) was 4 meq/L, the LDH (24 h) was 147.8 IU/L and the Na (24 h) was 140.2 meq/L. For the same compound, the PL (24 h) was 142.8 mg/dL, the RALB (24 h) was 3.3 g/dL and the TBIL (24 h) was 0.1 mg/dL. For the same compound, the TC (24 h) was 70.8 mg/dL, the TG (24 h) was 90 mg/dL and the TP (24 h) was 5.5 g/dL. It also gave a gamma-GTP (24 h) of 1 IU/L.
